Data from patent publication US9510594B2, “Use of SDHI fungicides on conventionally bred ASR-tolerant, stem canker resistant and/or frog-eye leaf spot resistant soybean varieties” (BAYER INTELLECTUAL PROPERTY GMBH, priority 2011, dated 2016).

Tested on: Phakopsora pachyrhizi
Experiment: Soybean rust greenhouse test: preventive spray of young soybean plants, ABBOTT % efficacy, Colby comparison
Format: in vivo
Conditions: for Efficacy: fungicide alone, susceptible soybean variety (Miyagishirome), evaluated 11 days after inoculation
Description: One susceptible (Miyagishirome) and soybean varieties tolerant to soybean rust (Phakospora pachyrhizi) (TMG 801 and TMG 803) were cultivated in greenhouse up to 1.5-leaf stage. A suitable preparation of SDHI fungicide was produced by mixing 1 part per weight of the SDHI ingredient with 28.5 parts by weight of acetone as solvent and 1.5 parts by weight of polyoxyethylene alkyl phenyl ether as emulsifier. The concentrate was diluted with water to the desired concentrations.
Young plants of the susceptible and tolerant soybean varieties were sprayed with the preparation of the SDHI fungicide at the stated rate of application to evaluate the activity in controlling Phakopsora pachyrhizi.
One day after spraying, soybean plants were inoculated with an aqueous spore suspension of the causal agent of soybean rust (Phakopsora pachyrhizi). Plants were then placed in a greenhouse at approximately 20 ° C. and a relative atmospheric humidity of approximately 80%. The following trial schedule was applied:
Plants were evaluated 11 days after inoculation. The percentage of infected leaf area was determined visually. The results were calculated according to ABBOTT (% efficacy). 0% means an efficacy which corresponds to that of the control, while an efficacy of 100% means that no disease was observed.
The expected efficiencies for the SDHI fungicide and ASR-tolerant variety combinations were determined according to Colby's formula and compared to the observed efficiencies (Colby, S. R. (1967) Calculating synergistic and antagonistic responses of herbicide combinations, Weeds, 15: 20-22): E=x+y−xy/100
Wherein E is the expected efficacy as a percent of the check when using the combination of a fungicide and ASR-tolerant variety; x is the efficacy of the percent check when using the fungicide; y is the efficacy of the percent check when using the ASR-tolerant variety.
By Comparison of the expected efficacy and the observed efficacy, the synergistic effect can be discerned. If the observed percent efficacy is higher than the calculated expected percent efficacy there is a synergistic effect.

[1] = fungicide + tolerant soybean variety TMG 801, 0.2 ppm a.i.
[2] = fungicide + tolerant soybean variety TMG 801, 1 ppm a.i.
[3] = fungicide + tolerant soybean variety TMG 801, 5 ppm a.i.
[4] = fungicide + tolerant soybean variety TMG 801, 10 ppm a.i.
[5] = fungicide + tolerant soybean variety TMG 801, 25 ppm a.i.
[6] = fungicide + tolerant soybean variety TMG 801, 50 ppm a.i.
[7] = fungicide + tolerant soybean variety TMG 803, 0.2 ppm a.i.
[8] = fungicide + tolerant soybean variety TMG 803, 1 ppm a.i.
[9] = fungicide + tolerant soybean variety TMG 803, 5 ppm a.i.
[10] = fungicide + tolerant soybean variety TMG 803, 10 ppm a.i.
[11] = fungicide + tolerant soybean variety TMG 803, 25 ppm a.i.
[12] = fungicide + tolerant soybean variety TMG 803, 50 ppm a.i.
[13] = fungicide + tolerant soybean variety TMG 803, 100 ppm a.i.

Row | SMILES | Actual efficacy [2] | Expected value, calculated using Colby's formula [2] | Actual efficacy [3] | Expected value, calculated using Colby's formula [3] | Actual efficacy [4] | Actual efficacy [7] | Expected value, calculated using Colby's formula [7] | Actual efficacy [8] | Expected value, calculated using Colby's formula [8] | Actual efficacy [9] | Expected value, calculated using Colby's formula [9] | Actual efficacy [10] | Expected value, calculated using Colby's formula [10] | Actual efficacy [11] | Expected value, calculated using Colby's formula [11] | Efficacy (0.2 ppm a.i.) | Efficacy (1 ppm a.i.) | Efficacy (5 ppm a.i.) | Efficacy (10 ppm a.i.) | Efficacy (25 ppm a.i.) | also measured
1 | Cc1nn(C)c(F)c1C(=O)Nc1ccccc1C(C)CC(C)C (stereo not drawn) [Penflufen, N-[2-(1,3-dimethylbutyl)phenyl]-5-fluor-1,3-dimethyl-1H-pyrazole-4-carboxamide] | 70% | 50% | 70% | 60% | 92% | 70% | 50% | 65% | 50% | 95% | 60% | 98% | 60% | 97% | 78% | 0% | 0% | 20% | 20% | 55% | deviation of the actual efficacy from the expected value (10 ppm a.i., TMG 801 or TMG 803): highest deviations of the actual efficacy from the expected value; Actual efficacy [1]: 65%; Expected value, calculated using Colby's formula [1]: 50%; Expected value, calculated using Colby's formula [4]: 60%; Actual efficacy [5]: 98%; Expected value, calculated using Colby's formula [5]: 78%; Actual efficacy [6]: 100%; Expected value, calculated using Colby's formula [6]: 80%; Actual efficacy [12]: 100%; Expected value, calculated using Colby's formula [12]: 80%; Efficacy (50 ppm a.i.): 60%
2 | Cn1cc(C(=O)Nc2ccccc2C2CC2C2CC2)c(C(F)F)n1 (stereo not drawn) [Sedaxane] | 82% | 65% | 90% | 79% | 98% | 50% | 30% | 60% | 30% | 75% | 58% | 95% | 79% | 100% | 99% | 0% | 0% | 40% | 70% | 98% | synergistic effect (applied to TMG 803, 0.2 ppm a.i. to 1 ppm a.i. versus 5 ppm a.i. to 25 ppm a.i.): higher synergism; Expected value, calculated using Colby's formula [4]: 90%; Actual efficacy [5]: 99%; Expected value, calculated using Colby's formula [5]: 99%
3 | Cn1cc(C(=O)Nc2ccccc2-c2cc(F)c(F)c(F)c2)c(C(F)F)n1 [Fluxapyroxad, 3-(difluoromethyl)-1-methyl-N-(3′,4′,5′-trifluorobiphenyl-2-yl)-1H-pyrazole-4-carboxamide] |  |  |  |  |  | 30% | 20% | 65% | 26% | 70% | 68% | 80% | 76% | 97% | 98% | 0% | 7% | 60% | 70% | 98% | synergistic effect (1 ppm a.i. applied to TMG 803, compared over all fungicides and rates): most pronounced synergistic effect
4 | Cn1cc(C(=O)Nc2ccc(F)cc2-c2ccc(Cl)c(Cl)c2)c(C(F)F)n1 [Bixafen, N-(3′,4′-dichloro-5-fluoro-1,1′-biphenyl-2-yl)-3-(difluoromethyl)-1-methyl-1H-pyrazole-4-carboxamide] |  |  |  |  |  | 60% | 55% | 70% | 58% | 75% | 64% | 80% | 73% | 96% | 80% | 0% | 7% | 20% | 40% | 55% | synergistic effect (applied to TMG 803, concentrations from 100 ppm a.i. to 25 ppm a.i.): highest synergistic effect; Actual efficacy [12]: 98%; Expected value, calculated using Colby's formula [12]: 82%; Actual efficacy [13]: 99%; Expected value, calculated using Colby's formula [13]: 78%; Efficacy (50 ppm a.i.): 60%; Efficacy (100 ppm a.i.): 50%
5 | CC(C)C1C2CCC1c1c(NC(=O)c3cn(C)nc3C(F)F)cccc12 (stereo not drawn) [Isopyrazam] |  |  |  |  |  | 55% | 30% | 80% | 65% |  |  |  |  |  |  | 0% | 50% |  |  |  | 
